# Laboratory results from US8361728B2, “Method for diagnosis of glutamate dehydrogenase disorders” (priority 2008, dated 2013).
# “And” between values parts separate entries of the source, which are not always exact repeats. Identical values can stand only once. Like-named read-outs stand apart in the source and are kept apart here.
# How the values were obtained:
# [1] = target: T1, Ser443-hGDH1 (Arg443Ser hGDH1 mutant) (Homo sapiens, UniProt P00367, R496S); test: Inhibition of purified recombinant GDH by female steroidal hormones; format: biochemical
# T1 construct: made in house; host or cells: Sf21 insect cells
# T1 sequence (P00367 54-558 R496S): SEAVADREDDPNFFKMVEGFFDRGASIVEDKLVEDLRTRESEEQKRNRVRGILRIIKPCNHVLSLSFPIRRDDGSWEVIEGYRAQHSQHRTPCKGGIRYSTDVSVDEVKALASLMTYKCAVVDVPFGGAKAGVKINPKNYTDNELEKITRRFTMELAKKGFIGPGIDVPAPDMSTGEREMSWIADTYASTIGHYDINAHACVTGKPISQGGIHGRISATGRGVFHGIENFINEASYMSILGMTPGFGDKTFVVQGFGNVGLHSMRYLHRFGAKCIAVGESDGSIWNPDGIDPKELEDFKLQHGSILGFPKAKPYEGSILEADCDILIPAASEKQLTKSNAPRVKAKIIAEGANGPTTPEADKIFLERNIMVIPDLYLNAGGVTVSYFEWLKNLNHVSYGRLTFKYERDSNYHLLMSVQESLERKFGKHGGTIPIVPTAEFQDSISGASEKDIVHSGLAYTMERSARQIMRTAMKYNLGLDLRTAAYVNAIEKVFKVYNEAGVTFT
# Text: (§1) Production and Purification of Recombinant hGDHs.
# (§2) Purification of Recombinant Wild-Type and Mutant hGDHs—Using extracts of Sf21 cells expressing wild-type hGDH1 or hGDH2, or the Arg443Ser hGDH1 mutant were purified to homogeneity using a previously described procedure (Kanavouras et al., 2007). Also, as described below, the Arg443Ser/Gly456Ala double mutant and the Ser409Arg/Asp single mutants of hGDH1 and the Ser445Ala mutant of hGDH2 were studied after they were purified to homogeneity using extracts of Sf21 cells expressing these proteins. Enzyme recoveries and degree of purification of the final products were similar to those of the wild-type hGDH1 and hGDH2.
# This was further tested by studying a double mutant of hGDH1 that, in addition to the Arg443Ser change, carries the Gly456Ala polymorphism that confers resistance to GTP. […] That substitution of Ser for Arg443 is responsible for the sensitivity of the wild-type hGDH2 to estrogens was confirmed by reverse mutagenesis experiments in which the Ser443 of hGDH2 was replaced by Arg.
# wild-type hGDH1 = target: T2, wild-type hGDH1 (Homo sapiens, UniProt P00367); test: as above; format: biochemical
# T2 construct: made in house; host or cells: Sf21 insect cells, baculovirus
# T2 sequence (P00367 54-558): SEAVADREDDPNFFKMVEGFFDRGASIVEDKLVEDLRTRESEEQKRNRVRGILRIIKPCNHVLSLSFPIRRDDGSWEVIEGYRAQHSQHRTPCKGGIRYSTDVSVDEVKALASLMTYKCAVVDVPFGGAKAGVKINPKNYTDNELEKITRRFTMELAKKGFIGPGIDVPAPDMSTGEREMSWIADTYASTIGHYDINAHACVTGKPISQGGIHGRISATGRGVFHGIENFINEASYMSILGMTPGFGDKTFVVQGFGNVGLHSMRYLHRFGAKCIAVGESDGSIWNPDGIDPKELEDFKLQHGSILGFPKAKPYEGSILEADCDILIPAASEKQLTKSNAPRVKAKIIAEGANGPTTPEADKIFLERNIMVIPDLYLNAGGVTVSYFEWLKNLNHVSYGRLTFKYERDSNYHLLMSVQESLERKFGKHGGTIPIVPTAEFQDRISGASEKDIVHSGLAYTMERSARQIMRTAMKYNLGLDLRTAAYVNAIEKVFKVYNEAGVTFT
# Procedure: (§3) For this, a study was performed on the interaction of estrogens with the hGDH2 variant as well as with the wild type-hGDH2 and hGDH1 obtained by expression of the corresponding cDNAs in Sf21 cells.
# (§4) Production and Purification of Recombinant hGDHs. […] The produced recombinant hGDHs were purified from Sf21 cell extracts using a previously described method that involves Ammonium Sulfate fractionation, hydrophobic interaction and hydroxyapatite chromatography. […] All hGDH proteins studied were produced and analyzed in parallel.
# (§5) Enzyme Assays. GDH activity was assayed spectrophotometrically at 25° C. in the direction of reductive amination of α-ketoglutarate. Initial rates (enzyme velocity at the interval during which the change in absorbance maintained linearity) were recorded. […] Regulation of the human recombinant GDHs by allosteric stimulators was studied by adding to the reaction ADP or L-leucine in various concentrations. Inhibition by GTP was studied by adding this compound in various concentrations to the reaction either in the absence of allosteric modulators or in the presence of 0.1 mM or 1.0 mM ADP. For the heat inactivation studies, samples containing about 50 μg/ml purified enzyme were incubated at 47.5° C. Aliquots were removed at specified time intervals and assayed immediately for enzyme activity.
# as §2, with “proteins.” for “proteins. Enzyme recoveries and degree of purification of the final products were similar to those of the wild-type hGDH1 and hGDH2.”
# hGDH1 [2] = target: T3, hGDH1 (Homo sapiens, UniProt P00367); test: Allosteric stimulation of recombinant GDH by ADP or L-leucine; format: biochemical; set-up: made in house; host or cells: Sf21 insect cells, baculovirus; conditions: positive modulation
# T3 sequence (P00367 54-558): as above
# Procedure: as §4, §5
# Ala445-hGDH2 [3] = target: T4, Ala445-hGDH2 (Homo sapiens, UniProt P49448, S498A); test: as above; format: biochemical; set-up: made in house; host or cells: Sf21 insect cells, baculovirus; conditions: positive modulation
# T4 sequence (P49448 54-558 S498A): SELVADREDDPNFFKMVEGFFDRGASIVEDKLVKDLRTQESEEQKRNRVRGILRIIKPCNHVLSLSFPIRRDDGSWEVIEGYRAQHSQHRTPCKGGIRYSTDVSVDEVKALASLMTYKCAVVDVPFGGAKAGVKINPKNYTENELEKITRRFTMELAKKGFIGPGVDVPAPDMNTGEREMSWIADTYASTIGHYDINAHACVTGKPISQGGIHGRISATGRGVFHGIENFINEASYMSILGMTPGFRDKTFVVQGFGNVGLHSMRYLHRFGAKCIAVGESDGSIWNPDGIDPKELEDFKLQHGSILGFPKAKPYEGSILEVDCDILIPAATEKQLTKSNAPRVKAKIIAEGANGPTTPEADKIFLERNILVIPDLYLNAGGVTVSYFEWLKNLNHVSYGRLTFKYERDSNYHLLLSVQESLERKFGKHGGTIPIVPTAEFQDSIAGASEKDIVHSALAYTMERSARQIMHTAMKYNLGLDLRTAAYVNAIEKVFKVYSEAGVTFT
# Procedure: as §4, §5
# hGDH2 [4] = target: T5, hGDH2 (Homo sapiens, UniProt P49448); test: as above; format: biochemical; conditions: positive modulation
# T5 construct: made in house; host or cells: Sf21 insect cells, baculovirus
# T5 sequence (P49448 54-558): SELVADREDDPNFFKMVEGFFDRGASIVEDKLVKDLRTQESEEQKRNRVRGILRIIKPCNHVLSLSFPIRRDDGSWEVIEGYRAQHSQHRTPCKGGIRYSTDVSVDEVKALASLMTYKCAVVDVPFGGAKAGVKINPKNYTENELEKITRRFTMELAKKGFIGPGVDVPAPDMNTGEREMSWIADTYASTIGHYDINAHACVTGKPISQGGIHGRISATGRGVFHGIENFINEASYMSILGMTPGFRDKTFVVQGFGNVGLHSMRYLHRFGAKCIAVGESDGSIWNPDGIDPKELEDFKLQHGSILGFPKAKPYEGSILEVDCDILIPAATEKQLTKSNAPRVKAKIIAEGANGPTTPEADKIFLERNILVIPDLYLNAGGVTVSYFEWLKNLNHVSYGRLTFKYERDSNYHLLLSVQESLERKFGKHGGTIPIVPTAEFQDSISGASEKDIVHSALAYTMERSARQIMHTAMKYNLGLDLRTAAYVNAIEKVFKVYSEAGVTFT
# Procedure: as §4, §5
# Ser445Ala hGDH2 variant = target: T6, Ser445Ala hGDH2 variant (Homo sapiens, UniProt P49448, S498A); test: Inhibition of purified recombinant GDH by estrogens; format: biochemical; conditions: baseline conditions (absence of allosteric effectors)
# T6 construct: made in house; host or cells: Sf21 insect cells, baculovirus
# T6 sequence (P49448 54-558 S498A): as the sequence (P49448 54-558 S498A) above
# Procedure: as §3, §1
# wild-type hGDH2 = target: T7, wild-type hGDH2 (Homo sapiens, UniProt P49448); test: Inhibition of purified recombinant GDH by female steroidal hormones; format: biochemical; conditions: for relative inhibition of hGDH2 versus hGDH1: in words
# T7 construct: made in house; host or cells: Sf21 insect cells, baculovirus
# T7 sequence (P49448 54-558): as the sequence (P49448 54-558) above
# Procedure: as §3, §4, §5
# as §2, with “proteins.” for “proteins. Enzyme recoveries and degree of purification of the final products were similar to those of the wild-type hGDH1 and hGDH2.”
# hGDH2 [5] = target: T5, hGDH2; test: GTP inhibition of purified recombinant GDH activity; format: biochemical
# Procedure: (§6) To investigate whether the Ser445Ala change modified the protein function of hGDH2, an Ala445-hGDH2 variant was obtained in recombinant form by expressing in Sf21 cells using the baculovirus expression system a GLUD2 cDNA with G instead of 1492T. […] The specific basal activity of the variant was concentration-dependent (FIGS. 6&7), as also previously shown for hGDH2 but not for hGDH1. At enzyme concentrations of about 5 μg/ml, the basal specific activity of the variant approached that of hGDH1 (FIGS. 6 & 7), but in contrast to the latter this activity was resistant to suppression by GTP (Table 3).
# as §1
# hGDH1 [6] = target: T3, hGDH1; set-up: made in house; host or cells: Sf21 insect cells, baculovirus; conditions: Zaganas and Plaitakis, 2002; read-out: IC50 (GTP inhibition); cited from earlier work
# hGDH2 [7] = target: T5, hGDH2; conditions: Zaganas and Plaitakis, 2002; read-out: IC50 (GTP inhibition); cited from earlier work
# hGDH1 [8] = target: T3, hGDH1; test: GTP inhibition of purified recombinant GDH activity; format: biochemical; set-up: made in house; host or cells: Sf21 insect cells, baculovirus
# Procedure: as §6, §1
# Ala445-hGDH2 [9] = target: T4, Ala445-hGDH2; test: as above; format: biochemical; set-up: made in house; host or cells: Sf21 insect cells, baculovirus
# Procedure: as §6, §1
# Ser445-hGDH2 = Ser445-hGDH2 (Homo sapiens, UniProt P49448)
# Sequence of Ser445-hGDH2 (P49448 54-558): as above
# Procedure: as §4
# as §5, with “GDH activity was assayed spectrophotometrically at 25° C. in the direction of reductive amination of α-ketoglutarate.” left out
# hGDH1 [10] = target: T3, hGDH1
# Procedure: as §4
# as §5, with “GDH activity was assayed spectrophotometrically at 25° C. in the direction of reductive amination of α-ketoglutarate.” left out
# Ala445-hGDH2 [11] = target: T4, Ala445-hGDH2
# Procedure: as §4
# as §5, with “GDH activity was assayed spectrophotometrically at 25° C. in the direction of reductive amination of α-ketoglutarate.” left out
# [12] = No ADP (baseline conditions), read-out: IC50
smiles,measurement,setting,value
"C[C@]12CC[C@@H]3c4ccc(O)cc4CC[C@H]3[C@@H]1CC[C@@H]2O [17 b-Estradiol, 17 beta-estradiol]",IC50,[1],2.22 ± 0.76 µM
same,IC50,"wild-type hGDH1; IC50, 0.1 mM ADP",69.2 ± 1.3 µM
same,IC50,"wild-type hGDH1; IC50, No ADP (baseline conditions)",26.9 µM
Nc1ncnc2c1ncn2[C@@H]1O[C@H](COP(=O)(O)OP(=O)(O)O)[C@@H](O)[C@H]1O [ADP],EC50,hGDH1 [2]; read-out: ADP SC50,22.4 ± 2.1 µM
same,EC50,Ala445-hGDH2 [3]; read-out: ADP SC50,58.2 ± 5.5 µM
same,EC50,hGDH2 [4]; read-out: ADP SC50,68.5 ± 2.3 µM
"CC/C(=C(/CC)c1ccc(O)cc1)c1ccc(O)cc1 [DES, diethylstilbestrol]",IC50,"[1]; 0.1 mM ADP, read-out: IC50",0.51 ± 0.05 µM
same,IC50,Ser445Ala hGDH2 variant,0.019 ± 0.003 µM
same,IC50,wild-type hGDH2; 0.1 mM ADP,1.05 ± 0.09 µM
same,IC50,wild-type hGDH2; No ADP (baseline conditions),0.094 µM and 0.09 µM
same,fold higher sensitivity/affinity of hGDH2 than hGDH1,"wild-type hGDH2; baseline conditions, hGDH2 versus hGDH1",> 15 fold and ~18 fold
same,"effect of inhibitor on Km for α-ketoglutarate, NH3 or glutamate","wild-type hGDH2; inhibitory concentrations of DES, wild-type hGDH1 and hGDH2",not altered
same,IC50,"wild-type hGDH1; 0.1 mM ADP, read-out: IC50",7.07 ± 0.4 µM
same,IC50,wild-type hGDH1; [12],1.67 ± 0.02 µM
same,IC50,"wild-type hGDH1; baseline conditions (absence of allosteric effectors), read-out: IC50±S.E.",1.53 µM
Nc1nc2c(ncn2[C@@H]2O[C@H](COP(=O)(O)OP(=O)(O)OP(=O)(O)O)[C@@H](O)[C@H]2O)c(=O)[nH]1 [GTP],Hill Coefficient,hGDH2 [5]; 0.1 mM ADP,1.06 ± 0.16
same,IC50,hGDH2 [5]; 0.1 mM ADP,12.2 ± 2.65 µM
same,Hill Coefficient,hGDH2 [5]; 1 mM ADP,0.82 ± 0.11
same,IC50,hGDH2 [5]; 1 mM ADP,204 ± 36.4 µM
same,Hill Coefficient,hGDH2 [5]; No ADP,0.72 ± 0.05
same,IC50,hGDH2 [5]; No ADP,40.1 ± 4.46 µM
same,IC50,hGDH1 [6],0.1 to 0.3 µM
same,IC50,hGDH2 [7],> 200 µM
same,Hill Coefficient,hGDH1 [8]; 0.1 mM ADP,2.13 ± 0.15
same,IC50,hGDH1 [8]; 0.1 mM ADP,1.61 ± 0.02 µM
same,Hill Coefficient,hGDH1 [8]; 1 mM ADP,1.94 ± 0.07
same,IC50,hGDH1 [8]; 1 mM ADP,18.5 ± 0.49 µM
same,Hill Coefficient,hGDH1 [8]; No ADP,1.51 ± 0.07
same,IC50,hGDH1 [8]; No ADP,0.31 ± 0.03 µM
same,Hill Coefficient,Ala445-hGDH2 [9]; 0.1 mM ADP,1.01 ± 0.09
same,IC50,Ala445-hGDH2 [9]; 0.1 mM ADP,24.4 ± 2.62 µM
same,Hill Coefficient,Ala445-hGDH2 [9]; 1 mM ADP,0.71 ± 0.04
same,IC50,Ala445-hGDH2 [9]; 1 mM ADP,258 ± 42.2 µM
same,Hill Coefficient,Ala445-hGDH2 [9]; No ADP,0.80 ± 0.05
same,IC50,Ala445-hGDH2 [9]; No ADP,29.1 ± 4.48 µM
N[C@@H](CCC(=O)O)C(=O)O [Glutamate],Km,Ser445-hGDH2; read-out: Km Glutamate,10.7 ± 1.77 mM
same,Km,hGDH1 [10]; read-out: Km Glutamate,12.4 ± 1.48 mM
same,Km,Ala445-hGDH2 [11]; read-out: Km Glutamate,6.8 ± 1.9 mM
CC(C)C[C@H](N)C(=O)O [L-leucine],EC50,hGDH1 [2]; read-out: L-leucine SC50,860 ± 139 µM
same,EC50,Ala445-hGDH2 [3]; read-out: L-leucine SC50,955 ± 45 µM
same,EC50,hGDH2 [4]; read-out: L-leucine SC50,1010 ± 213 µM
C[C@]12CC[C@@H]3c4ccc(O)cc4CC[C@H]3[C@@H]1C[C@@H](O)[C@@H]2O [Oestriol],IC50,"[1]; 0.1 mM ADP, read-out: IC50",2.43 ± 0.05 µM
same,IC50,wild-type hGDH2; 0.1 mM ADP,189 ± 17.9 µM
same,IC50,wild-type hGDH2; No ADP (baseline conditions),11.3 ± 0.74 µM
same,relative inhibition of hGDH2 versus hGDH1,wild-type hGDH2,inhibited hGDH2 more strongly than hGDH
same,relative inhibition of hGDH2 versus hGDH1,wild-type hGDH2; listed as oestriol,inhibited hGDH2 more strongly than hGDH1
same,IC50,"wild-type hGDH1; 0.1 mM ADP, read-out: IC50",316 ± 26.1 µM
same,IC50,wild-type hGDH1; [12],145 ± 18.8 µM
CC(=O)[C@H]1CC[C@H]2[C@@H]3CCC4=CC(=O)CC[C@]4(C)[C@H]3CC[C@]12C [Progesterone],IC50,"[1]; 0.1 mM ADP, read-out: IC50",8.62 ± 1.23 µM
same,IC50,wild-type hGDH2; 0.1 mM ADP,392 ± 8.91 µM
same,IC50,wild-type hGDH2; No ADP (baseline conditions),12.3 ± 2.63 µM
same,relative inhibition of hGDH2 versus hGDH1,wild-type hGDH2,inhibited hGDH2 more strongly than hGDH
same,relative inhibition of hGDH2 versus hGDH1,wild-type hGDH2; listed as progesterone,inhibited hGDH2 more strongly than hGDH1
same,IC50,"wild-type hGDH1; 0.1 mM ADP, read-out: IC50",596 ± 50.1 µM
same,IC50,wild-type hGDH1; [12],219 ± 7.99 µM
O=C(O)CCC(=O)C(=O)O [α-Ketoglutarate],Km,Ser445-hGDH2; read-out: Km α-Ketoglutarate,2.07 ± 0.29 mM
same,Km,hGDH1 [10]; read-out: Km α-Ketoglutarate,2.01 ± 0.18 mM
same,Km,Ala445-hGDH2 [11]; read-out: Km α-Ketoglutarate,2.67 ± 0.31 mM
